The source of these data is patent US12377601B2, “Fast-eluting three-dimensionally molded object, filament for fast-eluting three-dimensionally molded object, and material for fast-eluting three-dimensionally molded object” (ASTELLAS PHARMA INC., priority 2016, dated 2025).

The data set is described as follows: Solubility of the active component in Japanese Pharmacopoeia dissolution test fluids. It counts as physicochemical. How it is done: As specific materials, N^2-[(2E)-3-(4-chlorophenyl)-2-propenoyl]-N-[2-oxo-2-(4-{[6-(trifluoromethyl)pyrimidine-4-yl]oxy}piperidine-1-yl)ethyl]-3-pyridine-2-yl-L-alaninamide (manufactured by Astellas Pharma Inc., a solubility to a dissolution test 1st fluid of the Japanese Pharmacopoeia: >100 µM, a solubility to a dissolution test 2nd fluid of the Japanese Pharmacopoeia: 23.2 µM, hereinafter abbreviated as a compound A) was selected as an active component, Poly(vinyl alcohol) [MW 6000] (manufactured by Polysciences, Inc., the same hereinafter unless otherwise specified) was selected as a thermoplastic polymer, maltitol (SweetPearl P200, manufactured by Roquette, the same hereinafter unless otherwise specified) was selected as a sugar alcohol, and Triethyl Citrate (manufactured by Tokyo Chemical Industry Co., Ltd., the same hereinafter unless otherwise specified) was selected as a plasticizer component.

In brackets after ≈: the same amount, converted by molar mass. Where two headings read alike, the source gives them in different places. Bounds are passed on as bounds.

For the compound `O=C(/C=C/c1ccc(Cl)cc1)N[C@@H](Cc1ccccn1)C(=O)NCC(=O)N1CCC(Oc2cc(C(F)(F)F)ncn2)CC1` [compound A, N^2-[(2E)-3-(4-chlorophenyl)-2-propenoyl]-N-[2-oxo-2-(4-{[6-(trifluoromethyl)pyrimidine-4-yl]oxy}piperidine-1-yl)ethyl]-3-pyridine-2-yl-L-alaninamide], the solubility runs as follows: (dissolution test 1st fluid of the Japanese Pharmacopoeia, pH 1.2, simulated gastric fluid, read-out: solubility to a dissolution test 1st fluid of the Japanese Pharmacopoeia) over 100 µM; (dissolution test 2nd fluid of the Japanese Pharmacopoeia, pH 6.8, aqueous buffer, read-out: solubility to a dissolution test 2nd fluid of the Japanese Pharmacopoeia) 23.2 µM (≈ 14.3 µg/mL).

Usually solubility stands for the dissolved amount per volume that the medium holds.
